For 24 molecules, IC50 and TD50 results are on record in US8008303B2, “Biphenyl derivatives and their use in treating hepatitis C” (AstraZeneca AB, priority 2005, dated 2011).

A word on the IC50: it is the concentration needed to halve the response being measured.

Data set [1] concerns HCV replicon cells Huh 9B. Nature of the data set: HCV replicon assay (luciferase readout). Format: cell-based. In outline:
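Compounds, made up at twice final strength (final DMSO 1%), were added to subgenomic replicon cells one day after plating. Incubation then ran 72 h at 37 °C, 5% CO2, without G418. Replication was quantified as firefly luciferase luminescence in lysed cells, with cytotoxicity assessed on a duplicate clear plate.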

Data set [2] concerns HCV replicon cells Huh 9B. Format: cell-based.
[3] abbreviates: Hepatitis C virus, 72 h, concentration reducing replicon level (luciferase activity) by 50% vs untreated cell control, 72 h incubation.
Where [4] appears, read: concentration reducing total cell area by 50% relative to DMSO controls, methylene blue, absorbance 620 nm, 72 h incubation.

Where two headings read alike, the source gives them in different places.

In data set [1], `Cc1ccc(C(=O)Nc2ccc(N3CCOCC3)cc2)cc1-c1ccc(C(=O)Nc2ccccc2CN(C)C2CCCCC2)cc1` [Example 35, 6-Methyl-biphenyl-3,4′-dicarboxylic acid 4′-({2-[(cyclohexyl-methyl-amino)-methyl]-phenyl}-amide) 3-[(4-morpholin-4-yl-phenyl)-amide]] showed an IC50 of more than 5000 nM. Moreover, the TD50 entry in data set [2] is given as “** (key: * < 50 μM; ** > 50 μM)”.

Take `Cc1ccc(C(=O)Nc2ccc(N3CCOCC3)cc2)cc1-c1ccc(C(=O)Nc2ccc3c(c2)OCO3)cc1` [Example 16, 6-Methyl-biphenyl-3,4′-dicarboxylic acid 4′-benzo[1,3]dioxol-5-ylamide 3-[(4-morpholin-4-yl-phenyl)-amide]]: in data set [1], the IC50 is 1000 to 5000 nM. Besides, in data set [2], the TD50 result is on record as “** (key: * < 50 μM; ** > 50 μM)”.

With `CN1CCN(Cc2ccc(NC(=O)c3ccc(-c4cc(NC(=O)C5CCCCC5)ccc4Cl)cc3)cc2)CC1` [Example 249, 2′-Chloro-5′-(cyclohexanecarbonyl-amino)-biphenyl-4-carboxylic acid [4-(4-methyl-piperazin-1-ylmethyl)-phenyl]-amide], the IC50 in data set [1] (setting [3]) is 1000 to 5000 nM. Besides, the TD50 entry in data set [2] (setting [4]) is on record as “* (* < 50 μM)”.

For the molecule `Cc1ccc(C(=O)Nc2ccc(N3CCOCC3)cc2)cc1-c1ccc(C(=O)Nc2ccc3ncsc3c2)cc1` [Example 46, 6-Methyl-biphenyl-3,4′-dicarboxylic acid 4′-benzothiazol-6-ylamide 3-[(4-morpholin-4-yl-phenyl)-amide]], the IC50 in data set [1] was more than 5000 nM. The TD50 result in data set [2] was “** (key: * < 50 μM; ** > 50 μM)”.

As to `Cc1ccc(C(=O)Nc2ccc(N3CCOCC3)cc2)cc1-c1ccc(C(=O)Nc2ccccc2CN2CCCCC2)cc1` [Example 80, 6-Methyl-biphenyl-3,4′-dicarboxylic acid 3-[(4-morpholin-4-yl-phenyl)-amide] 4′-[(2-piperidin-1-ylmethyl-phenyl)-amide]], in data set [1], the IC50 fell in the range of 1000 to 5000 nM. Moreover, the TD50 entry in data set [2] is “* (key: * < 50 μM; ** > 50 μM)”.

In turn, `Cc1ccc(C(=O)Nc2ccc(N3CCOCC3)cc2)cc1-c1ccc(C(=O)NCCC(C)C)cc1` [Example 4, 6-Methyl-biphenyl-3,4′-dicarboxylic acid 4′-[(3-methyl-butyl)-amide] 3-[(4-morpholin-4-yl-phenyl)-amide]] had an IC50 in data set [1] of 1000 to 5000 nM. Besides, in data set [2], the TD50 result is listed as “** (key: * < 50 μM; ** > 50 μM)”.

Turning to `Cc1ccc(NC(=O)c2ccc(CN3CCS(=O)(=O)CC3)cc2)cc1-c1ccc(C(=O)NCc2cccc(Cl)c2)cc1` [Example 162, 5′-[4-(1,1-Dioxo-1lambda*6*-thiomorpholin-4-ylmethyl)-benzoylamino]-2′-methyl-biphenyl-4-carboxylic acid 3-chloro-benzylamide], the IC50 in data set [1] (setting [3]) lay in the range of 1000 to 5000 nM. In data set [2] (setting [4]), the TD50 entry is on record as “* (* < 50 μM)”.

Molecule `Cc1ccc(NC(=O)C2(C)CC2)cc1-c1ccc(C(=O)Nc2ccc(CN3CCS(=O)(=O)CC3)cc2)cc1` [Example 175, 2′-Methyl-5′-[(1-methyl-cyclopropanecarbonyl)-amino]-biphenyl-4-carboxylic acid [4-(1,1-dioxo-1lambda*6*-thiomorpholin-4-ylmethyl)-phenyl]-amide] came in with an IC50 in data set [1] (setting [3]) of less than 1000 nM. Also, the TD50 entry in data set [2] (setting [4]) is given as “* (* < 50 μM)”.

Regarding `CCC1(c2ccc(NC(=O)c3ccc(-c4cc(NC(=O)C5CC5)ccc4C)cc3)cc2)CCC(=O)NC1=O` (stereo not drawn) [Example 220, 5′-(Cyclopropanecarbonyl-amino)-2′-methyl-biphenyl-4-carboxylic acid [4-(3-ethyl-2,6-dioxo-piperidin-3-yl)-phenyl]-amide], the IC50 in data set [1] (setting [3]) is less than 1000 nM. For the same molecule, the TD50 entry in data set [2] (setting [4]) is “* (* < 50 μM)”.

In the case of `Cc1ccc(C(=O)Nc2ccc(N3CCOCC3)cc2)cc1-c1ccc(C(=O)Nc2ccc(CN3CCOCC3)cc2)cc1` [Example 74, 6-Methyl-biphenyl-3,4′-dicarboxylic acid 4′-[(4-morpholin-4-ylmethyl-phenyl)-amide] 3-[(4-morpholin-4-yl-phenyl)-amide]], the IC50 in data set [1] lay in the range of 1000 to 5000 nM. Moreover, in data set [2], the TD50 entry is “* (key: * < 50 μM; ** > 50 μM)”.

For the molecule `Cc1ccc(C(=O)Nc2ccc(N3CCOCC3)cc2)cc1-c1ccc(C(=O)Nc2ccc(CN3CCS(=O)(=O)CC3)cc2)cc1` [Example 50, 6-Methyl-biphenyl-3,4′-dicarboxylic acid 4′-{[4-(1,1-dioxo-1lambda*6*-thiomorpholin-4-ylmethyl)-phenyl]-amide} 3-[(4-morpholin-4-yl-phenyl)-amide]], the IC50 in data set [1] was less than 1000 nM. Further, in data set [2], the TD50 result is reported as “** (key: * < 50 μM; ** > 50 μM)”.

In turn, `Cc1ccc(C(=O)Nc2ccc(N3CCOCC3)cc2)cc1-c1ccc(C(=O)NCCN2CCCCC2)cc1` [Example 6, 6-Methyl-biphenyl-3,4′-dicarboxylic acid 3-[(4-morpholin-4-yl-phenyl)-amide] 4′-[(2-piperidin-1-yl-ethyl)-amide]] gave an IC50 in data set [1] of 1000 to 5000 nM. Further, in data set [2], the TD50 entry was “* (key: * < 50 μM; ** > 50 μM)”.

With `CC(=O)Nc1cccc(NC(=O)c2ccc(-c3cc(C(=O)Nc4ccc(N5CCOCC5)cc4)ccc3C)cc2)c1` [Example 61, 6-Methyl-biphenyl-3,4′-dicarboxylic acid 4′-[(3-acetylamino-phenyl)-amide] 3-[(4-morpholin-4-yl-phenyl)-amide]], the 50% inhibitory concentration (IC50) in data set [1] fell in the range of 1000 to 5000 nM. The TD50 entry in data set [2] was “** (key: * < 50 μM; ** > 50 μM)”.

As to `Cc1ccc(NS(=O)(=O)c2ccc(Cl)cc2)cc1-c1ccc(C(=O)Nc2ccc(CN3CCS(=O)(=O)CC3)cc2)cc1` [Example 202, 5′-(4-Chloro-benzenesulfonylamino)-2′-methyl-biphenyl-4-carboxylic acid [4-(1,1-dioxo-1lambda*6*-thiomorpholin-4-ylmethyl)-phenyl]-amide], the IC50 in data set [1] (setting [3]) fell in the range of 1000 to 5000 nM. In data set [2] (setting [4]), the TD50 result was “** (** > 50 μM)”.

`Cc1ccc(NS(=O)(=O)c2ccc(N3CCOCC3)nc2)cc1-c1ccc(C(=O)Nc2ccc(CN3CCS(=O)(=O)CC3)cc2)cc1` [Example 203, 2′-Methyl-5′-(6-morpholin-4-yl-pyridine-3-sulfonylamino)-biphenyl-4-carboxylic acid [4-(1,1-dioxo-1lambda*6*-thiomorpholin-4-ylmethyl)-phenyl]-amide] registered an IC50 in data set [1] (setting [3]) of 1000 to 5000 nM. The TD50 entry in data set [2] (setting [4]) was “* (* < 50 μM)”.

Molecule `Cc1ccc(C(=O)Nc2ccc(N3CCOCC3)cc2)cc1-c1ccc(C(=O)NCc2ccccc2Sc2ccccc2CO)cc1` [Example 49, 6-Methyl-biphenyl-3,4′-dicarboxylic acid 4′-[2-(2-hydroxymethyl-phenylsulfanyl)-benzylamide] 3-[(4-morpholin-4-yl-phenyl)-amide]] had an IC50 in data set [1] of less than 1000 nM. Also, in data set [2], the TD50 result is on record as “** (key: * < 50 μM; ** > 50 μM)”.

Turning to `Cc1ccc(C(=O)Nc2ccc(N3CCOCC3)cc2)cc1-c1ccc(C(=O)NCc2cccc(OC(F)(F)F)c2)cc1` [Example 41, 6-Methyl-biphenyl-3,4′-dicarboxylic acid 3-[(4-morpholin-4-yl-phenyl)-amide] 4′-(3-trifluoromethoxy-benzylamide)], the IC50 in data set [1] was less than 1000 nM. The TD50 result in data set [2] is on record as “** (key: * < 50 μM; ** > 50 μM)”.

On to `Cc1ccc(NC(=O)C2(C(F)(F)F)CC2)cc1-c1ccc(C(=O)Nc2ccc(CN3CCS(=O)(=O)CC3)cc2)cc1` [Example 173, 2′-Methyl-5′-[(1-trifluoromethyl-cyclopropanecarbonyl)-amino]-biphenyl-4-carboxylic acid [4-(1,1-dioxo-1lambda*6*-thiomorpholin-4-ylmethyl)-phenyl]-amide], for which the IC50 in data set [1] (setting [3]) fell in the range of 1000 to 5000 nM. For the same molecule, in data set [2] (setting [4]), the TD50 entry is given as “* (* < 50 μM)”.

In data set [1] (setting [3]), `CC(=O)Nc1ccc(C)c(-c2ccc(C(=O)Nc3ccc(CN4CCS(=O)(=O)CC4)cc3)cc2)c1` [Example 180, 5′-Acetylamino-2′-methyl-biphenyl-4-carboxylic acid [4-(1,1-dioxo-1lambda*6*-thiomorpholin-4-ylmethyl)-phenyl]-amide] returned an IC50 of less than 1000 nM. Moreover, the TD50 result in data set [2] (setting [4]) was “* (* < 50 μM)”.

With `Cc1ccc(NC(=O)c2ccc(Br)cc2)cc1-c1ccc(C(=O)Nc2ccc(-c3cnco3)cc2)cc1` [Example 212, 5′-(4-Bromo-benzoylamino)-2′-methyl-biphenyl-4-carboxylic acid (4-oxazol-5-yl-phenyl)-amide], the IC50 in data set [1] (setting [3]) was more than 5000 nM. Further, the TD50 entry in data set [2] (setting [4]) is on record as “** (** > 50 μM)”.

`Cc1ccc(C(=O)Nc2ccc(C(=O)N3CCOCC3)cc2)cc1-c1ccc(C(=O)Nc2ccc(CN3CCS(=O)(=O)CC3)cc2)cc1` [Example 140, 6-Methyl-biphenyl-3,4′-dicarboxylic acid 4′-{[4-(1,1-dioxo-1lambda*6*-thiomorpholin-4-ylmethyl)-phenyl]-amide} 3-{[4-(morpholine-4-carbonyl) -phenyl]-amide}] returned an IC50 in data set [1] of 1000 to 5000 nM. Further, in data set [2], the TD50 result is “* (key: * < 50 μM; ** > 50 μM)”.

In data set [1] (setting [3]), `Cc1ccc(NC(=O)CC2CCCC2)cc1-c1ccc(C(=O)Nc2ccc(CN3CCS(=O)(=O)CC3)cc2)cc1` [Example 166, 5′-(2-Cyclopentyl-acetylamino)-2′-methyl-biphenyl-4-carboxylic acid [4-(1,1-dioxo-1lambda*6*-thiomorpholin-4-ylmethyl)-phenyl]-amide] registered an IC50 of less than 1000 nM. The TD50 entry in data set [2] (setting [4]) is listed as “* (* < 50 μM)”.

In data set [1] (setting [3]), `Cc1ccc(NC(=O)c2ccco2)cc1-c1ccc(C(=O)Nc2ccc(CN3CCS(=O)(=O)CC3)cc2)cc1` [Example 153, Furan-2-carboxylic acid {4′-[4-(1,1-dioxo-1lambda*6*-thiomorpholin-4-ylmethyl)-phenylcarbamoyl]-6-methyl-biphenyl-3-yl}-amide] came in with an IC50 of less than 1000 nM. The TD50 entry in data set [2] (setting [4]) was “* (* < 50 μM)”.

As for `Cc1ccc(NC(=O)c2ccc(N3CCOCC3)cc2)cc1-c1ccc(C(=O)NCc2cccc(Cl)c2)cc1` [Example 94, 2′-Methyl-5′-(4-morpholin-4-yl-benzoylamino)-biphenyl-4-carboxylic acid 3-chloro-benzylamide], the IC50 in data set [1] (setting [3]) was in the range of 1000 to 5000 nM. The TD50 entry in data set [2] (setting [4]) is reported as “** (** > 50 μM)”.
